Consider one molecule from patent US20090163481A1, “PPAR-DELTA LIGANDS AND METHODS OF THEIR USE” (priority 2007, published 2009).

SMILES strings stand for the structures. Where two headings read alike, the source gives them in different places.

One assay relates to Akt1. The assay is described as follows: Western analysis of phosphorylated Akt1 in growth factor-deprived PC-3 cultures. The note with it: PC-3, 48 h growth factor withdrawal; VLDL 2 μg/ml + LPL 2 μg/ml and/or 10 μM SR13904. It counts as cell-based, human. How it is done: The ability of SR 13904 to regulate the cell survival Akt1 signaling pathway was assessed. PC-3 cultures were exposed to apoptosis-inducing growth factor deprivation and harvested for Western analysis of phosphorylated Akt1 and total PTEN protein. PTEN is known to inhibit the Akt1 pathway at the level of PI3-kinase. […] Subsequent studies confirmed this conclusion.
Referring to FIG. 8, PC-3 cells were exposed to 48 h of growth factor withdrawal with and without VLDL SR 13904 (2 μg/ml VLDL+2 μg/ml LPL and/or 10 μM SR13904). Standard western analysis for phospho-serine 473, phospho-tyrosine 308, and PTEN were performed. GAPDH was used as a control.

For another assay, the target named is T1, LBD of PPARδ protein (Homo sapiens, UniProt Q03181).
T1 construct: co-transfection of a plasmid containing an LBD/Gal4 fusion construct; expressed in transfected cells; host or cells: U2-OS (human bone cancer line)
T1 sequence (Q03181 211-439 limits assumed): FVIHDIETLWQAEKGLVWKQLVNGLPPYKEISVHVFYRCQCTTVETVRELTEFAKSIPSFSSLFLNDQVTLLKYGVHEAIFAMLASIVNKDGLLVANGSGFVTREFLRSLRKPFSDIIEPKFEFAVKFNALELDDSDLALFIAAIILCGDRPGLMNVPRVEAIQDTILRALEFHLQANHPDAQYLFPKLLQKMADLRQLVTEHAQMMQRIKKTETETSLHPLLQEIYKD
The assay is described as follows: PPARδ ligand-binding domain (LBD)/Gal4 UAS-tk-luciferase reporter assay in U2-OS cells. The class given is cell-based. Here is the method:
General Testing Procedures. Each ligand was screened for PPARδ binding and transactivation activity through the use of two complementary reporter assays as described below. In both systems, transfection efficiency was standardized by co-transfection of a control Renilla luciferase. U2-OS (human bone cancer line) cells were used for both assays because this is the cell line of choice for screening PPAR ligands. At 18 h post-transfection, GW 501, with and without the ligands of the disclosure, was added to the cells and incubated for an additional 24 h. The cells were then harvested and luciferase activities profiled.
A PPARδ protein ligand-binding domain (LBD) assay. The LBD assay consists of cellular co-transfection of a plasmid containing an LBD/Gal4 fusion construct and a vector containing a UAS-tk-luciferase reporter construct under the transcriptional control of a Gal4 upstream activating sequence. This system was used to test for binding activities of candidate PPARδ ligands to the LBD of PPARδ protein.
Referring to FIG. 3, U2-OS cells were transiently transfected with appropriate expression and reporter vectors. Ligands were added to the cell cultures 24 h post-transfection and incubated for an additional 16 h. Lipoprotein lipase (LPL; 2 μg/ml) was added with VLDL (5 μg/ml) to release PPARδ-active triglycerides. FIG. 3A: PPARδ LBD/Gal4/UAS-tk-luc competition assays with VLDL SR13904 (0-10 μM). The reporter activation (fold increase over blank) is presented relative to GW501516 at 7 nM (fold increase over blank=100). FIG. 3B: PPRE reporter assays using 0, 1, and 10 μM SR13904+VLDL. All assays were repeated in triplicate.
For orientation: In a reporter assay the amount or activity of a reporter protein is the signal.

A further assay deals with A549 cultures. The assay is described as follows: Real time PCR mRNA analysis of CDK2, CDK4, cyclin D1 in A549. The class given is cell-based, human. The note with it: A549, 20 μM, 0.5% FBS, 24 and 48 h. How it is done:
Referring now to FIG. 5D, to better define the level of regulation of SR13904 on cell cycle proteins, CDK2, CDK4, and cyclin D1 were selected for mRNA analysis using real time PCR. A549 cultures were treated with SR13904 (20 μM; 0.5% FBS) and sampled at 24- and 48-h time-points. […] For CDK2 the differences (SR13904-treated vs. vehicle control-treated) were significant (*p=0.01-0.05, **p=0.00-0.01). Computational analysis of the proximal human CDK2 promoter identified a number of putative consensus PPREs. None were found within the proximal promoter regions of the CDK4 and cyclin D1 genes. SR13904 may directly affect the transcriptional activity of CDK2 while exerting indirect effects on the expression of the CDK4 and cyclin D1 proteins, perhaps through control over PPARδ-dependent signaling pathways.
For orientation: Real-time PCR tracks product formation cycle by cycle.

The next assay deals with Huh7. Briefly: Alamar Blue proliferation assay, Huh7. It counts as cell-based. The note with it: Homo sapiens, Huh-7, 96 h; Huh7, 0-40 μM, 0.5% serum, 4 days; read-out: IC50 for growth inhibition. How it is done:
The effect of SR13904 on the proliferation of these cell lines was determined by an Alamar Blue assay. Exponentially growing cells were treated with a range of SR13904 concentrations (0-40 μM; in 0.5% serum) over 4 days and proliferation curves were determined. The IC50 values for growth inhibition by SR13904 for each cell line were determined. […] In addition, colony formation assays with SR13904 were performed with both A549 and Huh7 cells.
On the technique in general: The colour change of resazurin is a common sign of viable cells or microbes.

A further assay has as its system A549 cells. The assay is described as follows: Cell cycle distribution by flow cytometry in A549 cells. The class given is cell-based, human. As to conditions: A549, 2% FBS, 15 μM, after 24 h. Here is the method:
Referring now to FIG. 5A, SR13904 exerts inhibitory effects on the cell cycle. A representative experiment in which A549 cells were grown in phenol-red-free DMEM+2% charcoal-treated FBS □ SR13904 ([…]). Cells were treated in the exponential phase and assessed by flow cytometry at 24 and 48 h.
Referring now to FIG. 5B, SR13904 treatment arrests A549 cells in the G1 phase of the cell cycle. A549 cells were incubated in 2% FBS (to maintain a high proliferative state) and the cell-cycle profile was determined by flow cytometry after SR13904 treatment (15 μM) for 24 and 48 h, and compared with similar treatment by a control. […] All differences (SR13904-treated vs. vehicle control-treated) were significant; the G1 differences were highly significant (**p=0.001-0.01, ***p=<0.001). The results provide confirming evidence that activated PPARδ increases cell cycle progression through a positive effect on G1-phase cells, and that PPARδ activation upregulates CDK2, CDK4, and cyclin D1 expression patterns.

For assay [1], the target named is T2, ligand binding domain of PPAR delta (Homo sapiens, UniProt Q03181).
T2 construct: purchased Invitrogen
T2 sequence (Q03181 211-439 limits assumed): T1 sequence (Q03181 211-439 limits assumed)
Briefly: LANTHA SCREEN TR-FRET PPARδ Competitive Binding Assay. How it is done:
The LANTHA SCREEN™ TR-FRET PPARδ Competitive Binding Assay was conducted for a variety of compounds according to the instructions provided by the manufacturer (Invitrogen). In addition, proliferation assays were conducted. In Table 2, “Prolif IC50” is the concentration that inhibits cell viability (or growth) by 50% relative to a vehicle control, and “TR-F binding IC50 (μM)” is the concentration that competes binding by a labeled pan-agonist to the ligand binding domain of PPAR delta, by 50%.

`Cc1cc(SCc2sc(-c3cccc4ccccc34)nc2C)ccc1OCC(=O)O` [SR 13904]: in the assay with Akt1, the “phosphorylation of serine 473 and tyrosine 308 on the Akt1 protein” value is given as “completely abolished”. The “inhibition of binding of VLDL to PPARδ” value at LBD of PPARδ protein (SR13904 0-10 μM with VLDL) is “significantly inhibit”. Besides, the “concentrations at which ligand binds LBD of PPARδ, attenuating LBD binding of GW501” value on LBD of PPARδ protein (competition with GW501 (7 nM), U2-OS cells) fell in the range of 1 to 10 µM. Further, the “PPARδ ligand profile (agonist/antagonist)” value on LBD of PPARδ protein (from GAL-4 binding and PPRE transactivation reporter screens) was “PPARδ antagonist”. For the same molecule, in the assay on A549 cultures, the “CDK4 or cyclin D1 mRNA levels” value was “no effect” and the “steady state levels of CDK2 mRNA” value is reported as “significantly reduced”. The IC50 with Huh7 lay within 8000 to 10000 nM. In the assay with A549 cells, the “fraction of cells in the G1 phase” value is listed as “significantly increased” and the “fraction of cells in the S phase” value is recorded as “decreased”. The IC50 in assay [1] (competes binding by a labeled pan-agonist by 50%, * = determined by approximation from a semi log graph, read-out: TR-F binding IC50) was found to be 2400 nM. Further, the IC50 in assay [1] (repeat determination of TR-F binding IC50, read-out: repeat TR-F) is 2100 nM.
